Tests used:
hippocampal neurogenesis = assay: PACAP/BrdU infusion, BrdU/NeuN co-labelling of the dentate gyrus; assay type: in vivo, mouse; settings: 600 nM pump concentration, 0.5 μl/hr, 7 days infusion plus 10 days survival, relative to vehicle
Method: 10 week old male mice (C57B1/2), maintained on a 12 hr light/dark cycle with food and water ad libidum, were infused in the right lateral ventricle with PACAP38 (Bachem), using a Alzet pump (1007D), for 3,5 days or 7 days at a daily dose of 31 ng/day (600 nM PACAP pump concentration infused at a rate of 0.5 μl/hr). Bromodeoxyuridine (BrdU) (50 mg/ml) was also included in the infusion vehicle (0.9% saline containing 1 mg/ml mouse serum albumin (Sigma)) to enable measurement of proliferation by quantitation of BrdU incorporation in the DNA. The group of infused with either PACAP/BrdU or vehicle/BrdU for 3,5 days and sacrificed at this time point. The group infused with either PACAP/BrdU or vehicle/BrdU for 7 days were allowed to survive a further 10 days. After the allotted time the mice were sacrificed, perfused with PBS the brains removed and frozen at −70° C. prior to sectioning for immumohistochemical analysis.
The procedure for doubling labeling of BrdU with NeuN was performed sequentially. […]
For all BrdU/NeuN co-labelling experiments, one to two sections per animal were analysed. […] The number of BrdU/NeuN-labelled cells per area of dentate granule cell layer was counted manually. […] Results of the dentate gyrus BrdU/NeuN counts are expressed as the average number of BrdU/NeuN-positive cells per dentate gyrus for each individual animal and reported as the mean ±SEM.

[1] = test system: mouse adult neural stem cells; assay: Intracellular ATP assay, adult mouse NSC, non-adherent culture; assay type: cell-based
Method: The anterior lateral wall of the lateral ventricle of 5-6 week old mice was enzymatically dissociated in 0.8 mg/ml hyaluronidase and 0.5 mg/ml trypsin in DMEM containing 4.5 mg/ml glucose and 80 units/ml DNase at 37° C. for 20 min. The cells were gently triturated and mixed with three volumes of Neurosphere medium (DMEM/F12, B27 supplement, 12.5 mM HEPES pH7.4) containing 20 ng/ml EGF (unless otherwise stated), 100 units/ml penicillin and 100μg/ml streptomycin. After passing through a 70 μm strainer, the cells were pelleted at 160×g for 5 min. The supernatant was subsequently removed and the cells resuspended in Neurosphere medium supplemented as above, plated out in culture dishes and incubated at 37° C. Neurospheres were ready to be split approximately 7 days after plating.
To split neurosphere cultures, neurospheres were collected by centrifugation at 160×g for 5 min. The neurospheres were resuspended in 0.5 ml Trypsin/EDTA in HBSS (1×), incubated at 37° C. for 2 min and triturated gently to aid dissociation. Following a further 3 min incubation at 37° C. and trituration, 3 volumes of ice cold NSPH-media-EGF were added to stop further trypsin activity. The cells were pelleted at 220×g for 4 min, resuspended in fresh Neurosphere medium supplemented with 20 ng/ml EGF and 1 nM bFGF plated out and incubated at 37° C.
Mouse neurospheres, cultured as described above, from passage 2, were seeded in DMEM/F12 supplemented with B27 into a 96-well plate as single cells (10000 cells/well) to the substances to be measured were added at the concentrations indicated. After 3 days incubation, intracellular ATP was measured using the ATP-SL kit from BioThema, Sweden, according to the manufacturer's instructions. PACAP and VIP were purchased from Bachem. Maxadilan was a kind gift from Richard G Titus, Dept Microbiology, Immunology and Pathology, College of Veterinary Medicine and Biological Sciences, Colorado State University.
In experiments where signalling pathways were examined, cells were seeded as single cells as mentioned above. PACAP, 100 nM, was co incubated with 10 uM PKA inhibitor H89 (Alexis-Biochemicals) or 1 uM PLC inhibitor U73122 (Alexis-Biochemicals) or 1 uM of the PKC inhibitor Gö6976 (Sigma-Aldrich). Cells were incubated for 4 days before measurements of ATP.
In the experiment analysing the combinatory effect of PACAP and EGF, PACAP at 100 nM was co-incubated with 3 nM EGF for 3 days.

In the case of “pituitary adenylate cyclase-activating polypeptide [PACAP]”, the “neurogenesis in the ipsilateral dentate gyrus (BrdU/NeuN positive cells/dentate gyrus)” value (hippocampal neurogenesis) is reported as “increase in neurogenesis”, the “intracellular ATP levels” value ([1]; PACAP 100 nM, 4 days, relative to control) is reported as “significantly increases intracellular ATP levels” and the “intracellular ATP levels, and hence NSC number” value ([1]; PACAP 100 nM, EGF 3 nM, alone or combined, 3 days) is reported as “increased intracellular ATP levels”. The “intracellular ATP levels, and hence cell number” value ([1]; varying concentrations, non-adherent conditions, 3 days, relative to control, dose-dependent) was “statistically significant increase in intracellular ATP levels”.

From US20040038888A1 (priority 2002, published 2004)
